Results reported in the supplement of paper PMC8612539.
In brackets after ≈: the same amount, converted by molar mass.

Test system: Pasteurella multocida
Experiment: minimum inhibitory concentration (MIC)
Description: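 Broth microdilution MIC (Sensititre BOPO7F bovine plate, CLSI methods) of 19 antimicrobials against field isolates of P. multocida, M. haemolytica, H. somni (deep nasopharyngeal swabs) and E. coli, Enterococcus spp. (rectal swabs) from weaned dairy heifers. Incubation 16-24 h at 35 C. MIC is the lowest concentration preventing visible growth. Values with <= or > lie at the tested range limits. Trimethoprim-sulfamethoxazole is given as the trimethoprim component of a 1:19 mixture.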

CNC(C)C1CCC(N)C(OC2C(N)CC(N)C(OC3OCC(C)(O)C(NC)C3O)C2O)O1 (stereo not given) [Gentamicin]
Settings | minimum inhibitory concentration [µg/mL]
isolate (source animal id): 10 | 4 (≈ 8.38 µM)
isolate (source animal id): 11 | 2 (≈ 4.19 µM)
isolate (source animal id): 12 | 4 (≈ 8.38 µM)
isolate (source animal id): 19 | 4 (≈ 8.38 µM)
isolate (source animal id): 23 | 4 (≈ 8.38 µM)
isolate (source animal id): 26 | 4 (≈ 8.38 µM)
isolate (source animal id): 98 | 4 (≈ 8.38 µM)
isolate (source animal id): 104 | 2 (≈ 4.19 µM)
isolate (source animal id): 115 | 4 (≈ 8.38 µM)
isolate (source animal id): 117 | 4 (≈ 8.38 µM)
isolate (source animal id): 118 | 4 (≈ 8.38 µM)
isolate (source animal id): 121 | 4 (≈ 8.38 µM)
isolate (source animal id): 124 | 4 (≈ 8.38 µM)
isolate (source animal id): 125 | 4 (≈ 8.38 µM)
isolate (source animal id): 128 | 4 (≈ 8.38 µM)
isolate (source animal id): 131 | 16 (≈ 33.5 µM)
isolate (source animal id): 135 | 8 (≈ 16.8 µM)
isolate (source animal id): 136 | 4 (≈ 8.38 µM)
isolate (source animal id): 140 | 4 (≈ 8.38 µM)
isolate (source animal id): 144 | 4 (≈ 8.38 µM)
isolate (source animal id): 146 | 4 (≈ 8.38 µM)
isolate (source animal id): 150 | 4 (≈ 8.38 µM)
isolate (source animal id): 151 | 4 (≈ 8.38 µM)
isolate (source animal id): 153 | 4 (≈ 8.38 µM)
isolate (source animal id): 155 | 4 (≈ 8.38 µM)
isolate (source animal id): 157 | 4 (≈ 8.38 µM)
isolate (source animal id): 160 | 4 (≈ 8.38 µM)
isolate (source animal id): 164 | 4 (≈ 8.38 µM)
isolate (source animal id): 165 | 4 (≈ 8.38 µM)
isolate (source animal id): 167 | 4 (≈ 8.38 µM)
isolate (source animal id): 168 | 4 (≈ 8.38 µM)
isolate (source animal id): 169 | 4 (≈ 8.38 µM)
isolate (source animal id): 170 | 4 (≈ 8.38 µM)
isolate (source animal id): 171 | 4 (≈ 8.38 µM)
isolate (source animal id): 172 | 4 (≈ 8.38 µM)
isolate (source animal id): 173 | 4 (≈ 8.38 µM)
isolate (source animal id): 174 | 4 (≈ 8.38 µM)
isolate (source animal id): 175 | 4 (≈ 8.38 µM)
isolate (source animal id): 176 | 4 (≈ 8.38 µM)
isolate (source animal id): 177 | 4 (≈ 8.38 µM)
isolate (source animal id): 178 | 4 (≈ 8.38 µM)
isolate (source animal id): 179 | 4 (≈ 8.38 µM)
isolate (source animal id): 182 | 4 (≈ 8.38 µM)
isolate (source animal id): 192 | 4 (≈ 8.38 µM)
isolate (source animal id): 193 | 4 (≈ 8.38 µM)
isolate (source animal id): 195 | 4 (≈ 8.38 µM)
isolate (source animal id): 196 | 4 (≈ 8.38 µM)
isolate (source animal id): 197 | 4 (≈ 8.38 µM)
isolate (source animal id): 198 | 4 (≈ 8.38 µM)
isolate (source animal id): 199 | 4 (≈ 8.38 µM)
isolate (source animal id): 200 | 4 (≈ 8.38 µM)
isolate (source animal id): 201 | 4 (≈ 8.38 µM)
isolate (source animal id): 203 | 4 (≈ 8.38 µM)
isolate (source animal id): 204 | 4 (≈ 8.38 µM)
isolate (source animal id): 205 | 4 (≈ 8.38 µM)
isolate (source animal id): 206 | 4 (≈ 8.38 µM)
isolate (source animal id): 207 | 4 (≈ 8.38 µM)
isolate (source animal id): 208 | 4 (≈ 8.38 µM)
isolate (source animal id): 209 | 4 (≈ 8.38 µM)
isolate (source animal id): 210 | 4 (≈ 8.38 µM)
isolate (source animal id): 213 | 4 (≈ 8.38 µM)
isolate (source animal id): 216 | 4 (≈ 8.38 µM)
isolate (source animal id): 223 | 4 (≈ 8.38 µM)
isolate (source animal id): 227 | 2 (≈ 4.19 µM)
isolate (source animal id): 229 | 2 (≈ 4.19 µM)
isolate (source animal id): 233 | 4 (≈ 8.38 µM)
isolate (source animal id): 234 | 4 (≈ 8.38 µM)
isolate (source animal id): 237 | 4 (≈ 8.38 µM)
isolate (source animal id): 241 | 4 (≈ 8.38 µM)
isolate (source animal id): 245 | 4 (≈ 8.38 µM)
isolate (source animal id): 247 | 4 (≈ 8.38 µM)
isolate (source animal id): 250 | 2 (≈ 4.19 µM)
isolate (source animal id): 254 | 4 (≈ 8.38 µM)
isolate (source animal id): 255 | 4 (≈ 8.38 µM)
isolate (source animal id): 258 | 4 (≈ 8.38 µM)
isolate (source animal id): 261 | 2 (≈ 4.19 µM)
isolate (source animal id): 262 | 4 (≈ 8.38 µM)
isolate (source animal id): 269 | 4 (≈ 8.38 µM)
isolate (source animal id): 270 | 4 (≈ 8.38 µM)
isolate (source animal id): 274 | 4 (≈ 8.38 µM)
isolate (source animal id): 275 | 4 (≈ 8.38 µM)
isolate (source animal id): 276 | 4 (≈ 8.38 µM)
isolate (source animal id): 277 | 4 (≈ 8.38 µM)
isolate (source animal id): 278 | 4 (≈ 8.38 µM)
isolate (source animal id): 279 | 4 (≈ 8.38 µM)
isolate (source animal id): 280 | 4 (≈ 8.38 µM)
isolate (source animal id): 284 | 8 (≈ 16.8 µM)
isolate (source animal id): 285 | 2 (≈ 4.19 µM)
isolate (source animal id): 287 | 2 (≈ 4.19 µM)
isolate (source animal id): 290 | 4 (≈ 8.38 µM)
isolate (source animal id): 294 | 4 (≈ 8.38 µM)
isolate (source animal id): 295 | 2 (≈ 4.19 µM)
isolate (source animal id): 296 | 2 (≈ 4.19 µM)
isolate (source animal id): 307 | 4 (≈ 8.38 µM)
isolate (source animal id): 310 | 4 (≈ 8.38 µM)
isolate (source animal id): 311 | 4 (≈ 8.38 µM)
isolate (source animal id): 312 | ≤ 1
isolate (source animal id): 313 | 2 (≈ 4.19 µM)
isolate (source animal id): 315 | 4 (≈ 8.38 µM)
isolate (source animal id): 316 | 4 (≈ 8.38 µM)
